Experimental data as given in US8119633B2, “Substituted sulfonamide compounds” (Gruenenthal GmbH, priority 2007, dated 2012).
Where two headings read alike, the source gives them in different places.

Columns and labels:
[1] = target: T1, human bradykinin receptor 1 (B1R) (Homo sapiens, UniProt P46663); assay: Functional study on the bradykinin receptor 1 (B1R), human: FLIPR Ca2+ influx assay; type: cell-based
T1 construct: expressed in transfected cells; host or cells: CHO K1 cells
T1 sequence (P46663 1-353): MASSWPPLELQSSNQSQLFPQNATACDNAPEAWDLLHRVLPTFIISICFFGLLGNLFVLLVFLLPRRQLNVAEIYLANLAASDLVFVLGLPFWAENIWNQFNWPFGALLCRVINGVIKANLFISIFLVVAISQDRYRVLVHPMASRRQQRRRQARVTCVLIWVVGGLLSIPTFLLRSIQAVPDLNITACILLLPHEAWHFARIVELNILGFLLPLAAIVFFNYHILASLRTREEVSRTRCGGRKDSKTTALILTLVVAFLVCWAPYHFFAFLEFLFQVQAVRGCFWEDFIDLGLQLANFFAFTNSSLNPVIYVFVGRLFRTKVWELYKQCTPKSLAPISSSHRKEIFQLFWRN
Excerpt: Functional Study on the Human Bradykinin Receptor 1 (B1R)
(§1) The agonistic or antagonistic action of substances can be determined on the bradykinin receptor 1 (B1R) of the species human and rat using the following assay. According to this assay, the Ca^2+ influx through the channel is quantified with the aid of a Ca^2+-sensitive dye (Fluo-4 type, Molecular Probes Europe BV, Leiden, Netherlands) using a Fluorescent Imaging Plate Reader (FLIPR, Molecular Devices, Sunnyvale, USA).
(§2) Chinese hamster ovary cells (CHO K1 cells) which have been stably transfected with the human B1R gene (hB1R cells) or with the B1R gene of the rat (rB1R cells) are used. For functional studies, the cells are plated out on black 96-well plates having a clear base (BD Biosciences, Heidelberg, Germany or Greiner, Frickenhausen, Germany) in a density of 20,000-35,000 cells/well. The cells are incubated overnight at 37° C. and with 5% CO2 in culture medium (hB1R cells: Nutrient Mixture Ham's F12, Gibco Invitrogen GmbH, Karlsruhe, Germany or DMEM, Sigma-Aldrich, Taufkirchen, Germany; rB1R cells: D-MEM/F12, Gibco Invitrogen GmbH, Karlsruhe, Germany), with 10 vol. % FBS (fetal bovine serum, Gibco Invitrogen GmbH, Karlsruhe, Germany or PAN Biotech GmbH, Aidenbach, Germany).
(§3) On the following day, the cells are loaded for 60 minutes at 37° C. with 2.13 μM Fluo-4 (Molecular Probes Europe BV, Leiden, Netherlands) in HBSS buffer (Hank's buffered saline solution, Gibco Invitrogen GmbH, Karlsruhe, Germany) with 2.5 mM probenecid (Sigma-Aldrich, Taufkirchen, Germany) and 10 mM HEPES (Sigma-Aldrich, Taufkirchen, Germany). The plates are then washed twice with HBSS buffer, and HBSS buffer additionally containing 0.1% BSA (bovine serum albumin; Sigma-Aldrich, Taufkirchen, Germany), 5.6 mM glucose and 0.05% gelatin (Merck KGaA, Darmstadt, Germany) is added to the plates. After incubation for a further 20 minutes at room temperature, the plates are inserted into the FLIPR for Ca^2+ measurement. Alternatively, washing is carried out with buffer A (15 mM HEPES, 80 mM NaCl, 5 mM KCl, 1.2 mM CaCl2, 0.7 mM MgSO4, 2 g/l glucose, 2.5 mM probenecid) followed by loading with buffer A with added 2.5 μM Fluo-4 and 0.025% Pluronic F127 (Sigma-Aldrich, Taufkirchen, Germany). The cells are then washed twice with buffer A and incubated for 30 minutes at room temperature with buffer A additionally containing 0.05% BSA and 0.05% gelatin and are then inserted into the FLIPR for Ca^2+ measurement.
(§4) The Ca^2+-dependent fluorescence is measured before and after the addition of substances (λex=488 nm, λem=540 nm). Quantification is carried out by measuring the highest fluorescence intensity (FC, fluorescence counts) over time.
(§5) The FLIPR protocol consists of two substance additions. Test substances (10 μM) are first pipetted onto the cells and the Ca^2+ influx is compared with the control (hB1R: Lys-Des-Arg^9-bradykinin>=0.5 nM; rB1R: Des-Arg^9-bradykinin 10 μM). This gives the activation in %, based on the Ca^2+ signal after addition of Lys-Des-Arg^9-bradykinin (>=0.5 nM) or Des-Arg^9-bradykinin (10 μM).
(§6) After 10-20 minutes' incubation, Lys-Des-Arg^9-bradykinin (hB1R) or Des-Arg^9-bradykinin (rB1R) is applied in the concentration of the EC80, and the influx of Ca^2+ is likewise determined.
(§7) Antagonists lead to suppression of the Ca^2+ influx. The % inhibition compared with the maximum achievable inhibition is calculated.
(§8) In order to determine the IC50 value, the substances are added in various concentrations. Duplicate or triplicate determinations (n=2 or n=3) are carried out, and these are repeated in at least one further independent experiment (N>=2).

[2] = target: T2, bradykinin receptor 1 (B1R) of the rat (Rattus norvegicus, UniProt P97583); assay: Functional study on the bradykinin receptor 1 (B1R), rat: FLIPR Ca2+ influx assay; type: cell-based
T2 construct: expressed in transfected cells; host or cells: CHO K1 cells
T2 sequence (P97583 1-337): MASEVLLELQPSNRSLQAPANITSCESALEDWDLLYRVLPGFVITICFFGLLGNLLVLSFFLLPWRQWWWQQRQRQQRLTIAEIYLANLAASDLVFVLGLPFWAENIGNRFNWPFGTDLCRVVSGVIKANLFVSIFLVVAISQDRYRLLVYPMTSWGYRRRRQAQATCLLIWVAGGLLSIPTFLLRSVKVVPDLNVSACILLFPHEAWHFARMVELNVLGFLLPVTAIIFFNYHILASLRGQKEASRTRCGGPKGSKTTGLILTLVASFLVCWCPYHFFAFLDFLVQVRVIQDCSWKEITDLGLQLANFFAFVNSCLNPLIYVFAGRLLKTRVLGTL
Excerpt: as §1, §2, §3, §4, §5, §6, §7, §8

[3] = test substance 10 μM, CHO K1 cells transfected with human B1R, Lys-Des-Arg9-bradykinin at EC80, Ca2+ influx (Fluo-4, FLIPR), read-out: B1R antagonism, human [10 μM] % inhibition
[4] = test substance 10 μM, CHO K1 cells transfected with rat B1R, Des-Arg9-bradykinin at EC80, Ca2+ influx (Fluo-4, FLIPR), read-out: B1R antagonism, rat [10 μM] % inhibition

Structure (SMILES) | inhibition at 10 µM ([1]; CHO-K1, read-out: B1R antagonism, human [10 μM] % inhibition) [%] | inhibition at 10 µM ([2]; CHO-K1, read-out: B1R antagonism, rat [10 μM] % inhibition) [%] | inhibition at 10 µM [1, 3] [%] | inhibition at 10 µM [2, 4] [%]
CN(C)C(c1ccccc1)C1CCC(NC(=O)c2ccccc2N(C)S(=O)(=O)c2ccc(Cl)c(Cl)c2)CC1 (stereo not drawn) [Example 11, 2-[(3,4-dichloro-benzenesulfonyl)-methyl-amino]-N-[4-(dimethylamino-phenylmethyl)-cyclohexyl]-benzamide] | 85.5 | 107 | – | –
COc1ccc(S(=O)(=O)N2CCc3ccccc3C2CC(=O)NC2CCC(C(c3cccc(F)c3)N(C)C)CC2)cc1 (stereo not drawn) [Example 13, N-{4-[dimethylamino-(3-fluoro-phenyl)-methyl]-cyclohexyl}-2-[2-(4-methoxybenzenesulfonyl)-1,2,3,4-tetrahydro-isoquinolin-1-yl]-acetamide] | – | – | 64.4 | 76
COc1ccc(S(=O)(=O)N2CCc3ccccc3C2CC(=O)NC2CCC(C(c3ccc(F)cc3)N(C)C)CC2)cc1 (stereo not drawn) [Example 14, N-{4-[dimethylamino-(4-fluoro-phenyl)-methyl]-cyclohexyl}-2-[2-(4-methoxybenzenesulfonyl)-1,2,3,4-tetrahydro-isoquinolin-1-yl]-acetamide] | – | – | 86.9 | 75
COc1ccc(S(=O)(=O)N2CCc3ccccc3C2CC(=O)NC2CCC(C(c3cccs3)N(C)C)CC2)cc1 (stereo not drawn) [Example 15, N-[4-(dimethylamino-thiophen-2-yl-methyl)-cyclohexyl]-2-[2-(4-methoxybenzenesulfonyl)-1,2,3,4-tetrahydro-isoquinolin-1-yl]-acetamide] | – | – | 44.6 | 57
COc1ccc(S(=O)(=O)N2CCc3ccccc3C2CC(=O)NCC2CCC(C(c3cccc(F)c3)N(C)C)CC2)cc1 (stereo not drawn) [Example 16, N-{4-[dimethylamino-(3-fluoro-phenyl)-methyl]-cyclohexylmethyl}-2-[2-(4-methoxy-benzenesulfonyl)-1,2,3,4-tetrahydro-isoquinolin-1-yl]-acetamide] | – | – | 35.5 | 57
COc1ccc(S(=O)(=O)N2CCc3ccccc3C2CC(=O)NCC2CCC(C(c3ccccc3)N(C)C)CC2)cc1 (stereo not drawn) [Example 17, N-[4-(dimethylamino-phenyl-methyl)-cyclohexylmethyl]-2-[2-(4-methoxybenzenesulfonyl)-1,2,3,4-tetrahydro-isoquinolin-1-yl]-acetamide] | – | – | 36.6 | 41
COc1ccc(S(=O)(=O)N2CCc3ccccc3C2CC(=O)NCC2CCC(C(CCc3ccccc3)N(C)C)CC2)cc1 (stereo not drawn) [Example 18, N-[4-(1-dimethylamino-3-phenyl-propyl)-cyclohexylmethyl]-2-[2-(4-methoxybenzenesulfonyl)-1,2,3,4-tetrahydro-isoquinolin-1-yl]-acetamide] | – | – | 58.8 | 73
COc1ccc(S(=O)(=O)N2CCc3ccccc3C2CC(=O)NCC2CCC(C(c3ccc(F)cc3)N(C)C)CC2)cc1 (stereo not drawn) [Example 19, N-{4-[dimethylamino-(4-fluoro-phenyl)-methyl]-cyclohexylmethyl}-2-[2-(4-methoxy-benzenesulfonyl)-1,2,3,4-tetrahydro-isoquinolin-1-yl]-acetamide] | – | – | 42.7 | 41
COc1ccc(S(=O)(=O)N2CCc3ccccc3C2CC(=O)NCC2CCC(C(c3ccc(Cl)cc3)N(C)C)CC2)cc1 (stereo not drawn) [Example 20, N-{4-[(4-chloro-phenyl)-dimethylamino-methyl]-cyclohexylmethyl}-2-[2-(4-methoxy-benzenesulfonyl)-1,2,3,4-tetrahydro-isoquinolin-1-yl]-acetamide] | – | – | 38.8 | 28
COc1ccc(S(=O)(=O)N2CCc3ccccc3C2CC(=O)NCC2CCC(C(c3cccs3)N(C)C)CC2)cc1 (stereo not drawn) [Example 21, N-[4-(dimethylamino-thiophen-2-yl-methyl)-cyclohexylmethyl]-2-[2-(4-methoxybenzenesulfonyl)-1,2,3,4-tetrahydro-isoquinolin-1-yl]-acetamide] | – | – | 52.9 | 41
COc1ccc(S(=O)(=O)N2CCc3ccccc3C2CC(=O)NCCC2CCC(C(c3ccc(Cl)cc3)N(C)C)CC2)cc1 (stereo not drawn) [Example 22, N-(2-{4-[(4-chloro-phenyl)-dimethylamino-methyl]-cyclohexyl}-ethyl)-2-[2-(4-methoxy-benzenesulfonyl)-1,2,3,4-tetrahydro-isoquinolin-1-yl]-acetamide] | – | – | 70.3 | 34
COc1ccc(S(=O)(=O)N2CCc3ccccc3C2CC(=O)NCCC2CCC(C(c3cccc(F)c3)N(C)C)CC2)cc1 (stereo not drawn) [Example 23, N-(2-{4-[dimethylamino-(3-fluoro-phenyl)-methyl]-cyclohexyl}-ethyl)-2-[2-(4-methoxy-benzenesulfonyl)-1,2,3,4-tetrahydro-isoquinolin-1-yl]-acetamide] | – | – | 64 | 57
COc1ccc(S(=O)(=O)N2CCc3ccccc3C2CC(=O)NCCC2CCC(C(c3ccc(F)cc3)N(C)C)CC2)cc1 (stereo not drawn) [Example 24, N-(2-{4-[dimethylamino-(4-fluoro-phenyl)-methyl]-cyclohexyl}-ethyl)-2-[2-(4-methoxy-benzenesulfonyl)-1,2,3,4-tetrahydro-isoquinolin-1-yl]-acetamide] | – | – | 82.2 | 67
COc1ccc(S(=O)(=O)N2CCc3ccccc3C2CC(=O)NCCC2CCC(C(c3cccs3)N(C)C)CC2)cc1 (stereo not drawn) [Example 25, N-{2-[4-(dimethylamino-thiophen-2-yl-methyl)-cyclohexyl]-ethyl}-2-[2-(4-methoxy-benzenesulfonyl)-1,2,3,4-tetrahydro-isoquinolin-1-yl]-acetamide] | – | – | 79.5 | 68
CN(C)C(c1cccc(F)c1)C1CCC(NC(=O)CC2c3ccccc3CCN2S(=O)(=O)c2ccc(Cl)c(Cl)c2)CC1 (stereo not drawn) [Example 26, 2-(2-(3,4-dichlorophenylsulfonyl)-1,2,3,4-tetrahydroisoquinolin-1-yl)-N-(4-((dimethylamino)(3-fluorophenyl)methyl)cyclohexyl)acetamide] | – | – | 97.4 | 73
